# Data taken from ChEMBL document CHEMBL1201861, “Genomics of Drug Sensitity in Cancer screening data, Wellcome Trust Sanger Institute”.
# Assays:
# Experiment in all cases: cells
# COR-L88 = assay type: functional, cell-based, Homo sapiens;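 also: growth inhibition of COR-L88 cells, read out with a cell viability assay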
# Description: SANGER: Inhibition of human COR-L88 cell growth in a cell viability assay.
# CTB-1 = assay type: functional, cell-based, Homo sapiens
# Description: SANGER: Inhibition of human CTB-1 cell growth in a cell viability assay.
# CW-2 = assay type: functional, cell-based, Homo sapiens;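 also: growth inhibition of CW-2 cells, read out by a cell viability assay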
# Description: SANGER: Inhibition of human CW-2 cell growth in a cell viability assay.
# DMS-79 = assay type: functional, cell-based, Homo sapiens;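 also: growth inhibition measured with a cell viability assay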
# Description: SANGER: Inhibition of human DMS-79 cell growth in a cell viability assay.
# DSH1 = assay type: functional, cell-based, Homo sapiens;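 also: growth inhibition of human DSH1 cells, measured with a cell viability readout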
# Description: SANGER: Inhibition of human DSH1 cell growth in a cell viability assay.
# ES3 = assay type: functional, cell-based, Homo sapiens;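 also: growth inhibition of ES3 cells, read out with a cell viability assay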
# Description: SANGER: Inhibition of human ES3 cell growth in a cell viability assay.
# EW-11 = assay type: functional, cell-based, Homo sapiens;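 also: growth inhibition of human EW-11 cells, measured with a cell viability assay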
# Description: SANGER: Inhibition of human EW-11 cell growth in a cell viability assay.
# EW-13 = assay type: functional, cell-based, Homo sapiens;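 also: growth inhibition of EW-13 cells, read out with a cell viability assay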
# Description: SANGER: Inhibition of human EW-13 cell growth in a cell viability assay.
# GAK = assay type: functional, cell-based, Homo sapiens;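 also: cell growth inhibition read out by a cell viability assay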
# Description: SANGER: Inhibition of human GAK cell growth in a cell viability assay.
# HAL-01 = assay type: functional, cell-based, Homo sapiens;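 also: growth inhibition of human HAL-01 cells, read out with a cell viability assay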
# Description: SANGER: Inhibition of human HAL-01 cell growth in a cell viability assay.
# HCC 2998 = assay type: functional, cell-based, Homo sapiens;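 also: growth inhibition of human HCC2998 cells, measured with a cell viability read-out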
# Description: SANGER: Inhibition of human HCC2998 cell growth in a cell viability assay.
# HD-MY-Z = assay type: functional, cell-based, Homo sapiens;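 also: growth inhibition of HD-MY-Z cells, read out with a cell viability assay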
# Description: SANGER: Inhibition of human HD-MY-Z cell growth in a cell viability assay.
# HH = assay type: functional, cell-based, Homo sapiens
# Description: SANGER: Inhibition of human HH cell growth in a cell viability assay.
# HL-60 = assay type: functional, cell-based, Homo sapiens;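 also: growth inhibition of human HL-60 cells, read out with a cell viability assay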
# Description: SANGER: Inhibition of human HL-60 cell growth in a cell viability assay.
# JAR = assay type: functional, cell-based, Homo sapiens;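 also: growth inhibition of human JAR cells determined with a cell viability assay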
# Description: SANGER: Inhibition of human JAR cell growth in a cell viability assay.
# K562 = assay type: functional, cell-based, Homo sapiens
# Description: SANGER: Inhibition of human K-562 cell growth in a cell viability assay.
# KM12 = assay type: functional, cell-based, Homo sapiens;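 also: KM12 cell growth inhibition, read out with a cell viability assay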
# Description: SANGER: Inhibition of human KM12 cell growth in a cell viability assay.
# KMOE-2 = assay type: functional, cell-based, Homo sapiens;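 also: growth inhibition of human KMOE-2 cells, read out with a cell viability assay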
# Description: SANGER: Inhibition of human KMOE-2 cell growth in a cell viability assay.
# KU812 cell line = assay type: functional, cell-based, Homo sapiens;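 also: growth inhibition of KU812 cells, read out with a cell viability assay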
# Description: SANGER: Inhibition of human KU812 cell growth in a cell viability assay.
# KURAMOCHI = assay type: functional, cell-based, Homo sapiens;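 also: growth inhibition of KURAMOCHI cells, read out with a cell viability assay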
# Description: SANGER: Inhibition of human KURAMOCHI cell growth in a cell viability assay.
# LAMA-84 = assay type: functional, cell-based, Homo sapiens;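 also: growth inhibition of LAMA-84 cells, read out with a cell viability assay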
# Description: SANGER: Inhibition of human LAMA-84 cell growth in a cell viability assay.
# LC-2-ad = assay type: functional, cell-based, Homo sapiens;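 also: growth inhibition of human LC-2-ad cells, read out with a cell viability assay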
# Description: SANGER: Inhibition of human LC-2-ad cell growth in a cell viability assay.
# LS-123 = assay type: functional, cell-based, Homo sapiens
# Description: SANGER: Inhibition of human LS-123 cell growth in a cell viability assay.
# LS-513 = assay type: functional, cell-based, Homo sapiens
# Description: SANGER: Inhibition of human LS-513 cell growth in a cell viability assay.
# MC116 = assay type: functional, cell-based, Homo sapiens;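 also: growth inhibition of MC116 cells, read out with a cell viability assay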
# Description: SANGER: Inhibition of human MC116 cell growth in a cell viability assay.
# MFM-223 = assay type: functional, cell-based, Homo sapiens
# Description: SANGER: Inhibition of human MFM-223 cell growth in a cell viability assay.
# MLMA = assay type: functional, cell-based, Homo sapiens;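 also: growth inhibition of MLMA cells (human), determined through a cell viability readout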
# Description: SANGER: Inhibition of human MLMA cell growth in a cell viability assay.
# MS-1 = assay type: functional, cell-based, Homo sapiens;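 also: growth inhibition of MS-1 cells, read out by cell viability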
# Description: SANGER: Inhibition of human MS-1 cell growth in a cell viability assay.
# NB17 = assay type: functional, cell-based, Homo sapiens;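 also: growth inhibition of NB17 cells, read out with a cell viability assay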
# Description: SANGER: Inhibition of human NB17 cell growth in a cell viability assay.
# NCI-H1092 = assay type: functional, cell-based, Homo sapiens;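 also: cell growth inhibition measured with a cell viability assay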
# Description: SANGER: Inhibition of human NCI-H1092 cell growth in a cell viability assay.
# NCI-H69 = assay type: functional, cell-based, Homo sapiens;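 also: growth inhibition of the cell line, read out with a cell viability assay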
# Description: SANGER: Inhibition of human NCI-H69 cell growth in a cell viability assay.
# NH-12 = assay type: functional, cell-based, Homo sapiens;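 also: growth inhibition of NH-12 cells, read out with a cell viability assay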
# Description: SANGER: Inhibition of human NH-12 cell growth in a cell viability assay.
# OCUB-M = assay type: functional, cell-based, Homo sapiens;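 also: growth inhibition of the cancer cell line, read out through a cell viability assay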
# Description: SANGER: Inhibition of human OCUB-M cell growth in a cell viability assay.
# ONS-76 = assay type: functional, cell-based, Homo sapiens;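 also: growth inhibition of human ONS-76 cells, read out with a cell viability assay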
# Description: SANGER: Inhibition of human ONS-76 cell growth in a cell viability assay.
# OS-RC-2 = assay type: functional, cell-based, Homo sapiens;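 also: growth inhibition of human OS-RC-2 cells, measured by a cell viability assay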
# Description: SANGER: Inhibition of human OS-RC-2 cell growth in a cell viability assay.
# P30-OHK = assay type: functional, cell-based, Homo sapiens;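 also: growth inhibition of the P30-OHK cell line, read out with a cell viability assay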
# Description: SANGER: Inhibition of human P30-OHK cell growth in a cell viability assay.
# QIMR-WIL = assay type: functional, cell-based, Homo sapiens;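 also: growth inhibition of QIMR-WIL cells, read out with a cell viability assay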
# Description: SANGER: Inhibition of human QIMR-WIL cell growth in a cell viability assay.
# SBC-1 = assay type: functional, cell-based, Homo sapiens;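 also: cell viability assay measuring growth inhibition of the SBC-1 cell line, IC50 being the concentration that halves growth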
# Description: SANGER: Inhibition of human SBC-1 cell growth in a cell viability assay.
# SK-MEL-2 = assay type: functional, cell-based, Homo sapiens;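 also: growth inhibition of human SK-MEL-2 cells measured with a cell viability assay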
# Description: SANGER: Inhibition of human SK-MEL-2 cell growth in a cell viability assay.
# SK-UT-1 = assay type: functional, cell-based, Homo sapiens;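 also: growth inhibition of SK-UT-1 cells, measured by a cell viability assay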
# Description: SANGER: Inhibition of human SK-UT-1 cell growth in a cell viability assay.
# SNU-C2B = assay type: functional, cell-based, Homo sapiens;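 also: cell viability readout used to measure compound-driven suppression of SNU-C2B cell proliferation, IC50 marking half-maximal growth inhibition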
# Description: SANGER: Inhibition of human SNU-C2B cell growth in a cell viability assay.
# SW982 = assay type: functional, cell-based, Homo sapiens;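 also: growth inhibition of SW982 cells, read out with a cell viability assay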
# Description: SANGER: Inhibition of human SW982 cell growth in a cell viability assay.
# 8-MG-BA = assay type: functional, cell-based, Homo sapiens;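 also: growth inhibition of 8-MG-BA cells, read out with a cell viability assay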
# Description: SANGER: Inhibition of human 8-MG-BA cell growth in a cell viability assay.
# A388 = assay type: functional, cell-based, Homo sapiens;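 also: growth inhibition of human A388 cells, read out with a cell viability assay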
# Description: SANGER: Inhibition of human A388 cell growth in a cell viability assay.
# TGBC1TKB = assay type: functional, cell-based, Homo sapiens;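 also: growth inhibition of TGBC1TKB cells, read out by a cell viability assay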
# Description: SANGER: Inhibition of human TGBC1TKB cell growth in a cell viability assay.
# U-87 MG = assay type: functional, cell-based, Homo sapiens, U-87MG ATCC;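 also: growth inhibition of the cells measured with a viability assay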
# Description: SANGER: Inhibition of human U-87-MG cell growth in a cell viability assay.
# CGTH-W-1 = assay type: functional, cell-based, Homo sapiens;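 also: growth inhibition of human CGTH-W-1 cells measured by cell viability assay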
# Description: SANGER: Inhibition of human CGTH-W-1 cell growth in a cell viability assay.
# COLO-668 = assay type: functional, cell-based, Homo sapiens
# Description: SANGER: Inhibition of human COLO-668 cell growth in a cell viability assay.
molecule,measurement,setting,value
CISPLATIN,IC50,COR-L88; cor-l88,319 µM
same,IC50,CTB-1; ctb-1,2.3 µM
same,IC50,CW-2; cw-2,24.5 µM
same,IC50,DMS-79; dms-79,24.4 µM
same,IC50,DSH1; dsh1,145 µM
same,IC50,ES3; es3,0.863 µM
same,IC50,EW-11; ew-11,21 µM
same,IC50,EW-13; ew-13,4.17 µM
same,IC50,GAK; gak,490 µM
same,IC50,HAL-01; hal-01,109 µM
same,IC50,HCC 2998; hcc 2998,271 µM
same,IC50,HD-MY-Z; hd-my-z,18 µM
same,IC50,HH; hh,22.5 µM
same,IC50,HL-60; hl-60,8.69 µM
same,IC50,JAR; jar,3.35 µM
same,IC50,K562; k562,509 µM
same,IC50,KM12; km12,114 µM
same,IC50,KMOE-2; kmoe-2,25.2 µM
same,IC50,KU812 cell line; ku812,49 µM
same,IC50,KURAMOCHI; kuramochi,159 µM
same,IC50,LAMA-84; lama-84,10.8 µM
same,IC50,LC-2-ad; lc-2-ad,12.2 µM
same,IC50,LS-123; ls-123,491 µM
same,IC50,LS-513; ls-513,61.6 µM
same,IC50,MC116; mc116,86.9 µM
same,IC50,MFM-223; mfm-223,615 µM
same,IC50,MLMA; mlma,19.2 µM
same,IC50,MS-1; ms-1,14.1 µM
same,IC50,NB17; nb17,69.4 µM
same,IC50,NCI-H1092; nci-h1092,15.4 µM
same,IC50,NCI-H69; nci-h69,231 µM
same,IC50,NH-12; nh-12,13.2 µM
same,IC50,OCUB-M; ocub-m,22.7 µM
same,IC50,ONS-76; ons-76,3.95 µM
same,IC50,OS-RC-2; os-rc-2,3.87 µM
same,IC50,P30-OHK; p30-ohk,2.71 µM
same,IC50,QIMR-WIL; qimr-wil,29.3 µM
same,IC50,SBC-1; sbc-1,141 µM
same,IC50,SK-MEL-2; sk-mel-2,226 µM
same,IC50,SK-UT-1; sk-ut-1,12.9 µM
same,IC50,SNU-C2B; snu-c2b,38.4 µM
same,IC50,SW982; sw982,23.1 µM
same,IC50,8-MG-BA; 8-mg-ba,5.38 µM
same,IC50,A388; a388,51.9 µM
same,IC50,TGBC1TKB; tgbc1tkb,82.6 µM
same,IC50,U-87 MG; u-87mg atcc,16.2 µM
same,IC50,CGTH-W-1; cgth-w-1,4.55 µM
same,IC50,COLO-668; colo-668,103 µM
Cc1cn(-c2cc(NC(=O)c3ccc(C)c(Nc4nccc(-c5cccnc5)n4)c3)cc(C(F)(F)F)c2)cn1 [NILOTINIB],IC50,"COR-L88; Homo sapiens, COR-L88",> 2 µM
same,IC50,"CTB-1; Homo sapiens, CTB-1",> 2 µM
same,IC50,"CW-2; Homo sapiens, CW-2",> 2 µM
same,IC50,"DMS-79; Homo sapiens, DMS-79",> 2 µM
same,IC50,"DSH1; Homo sapiens, DSH1",> 2 µM
same,IC50,"ES3; Homo sapiens, ES3",> 2 µM
same,IC50,"EW-11; Homo sapiens, EW-11",> 2 µM
same,IC50,"EW-13; Homo sapiens, EW-13",> 2 µM
same,IC50,"GAK; Homo sapiens, GAK",> 2 µM
same,IC50,"HAL-01; Homo sapiens, HAL-01",> 2 µM
same,IC50,"HCC 2998; Homo sapiens, HCC 2998",> 2 µM
same,IC50,"HD-MY-Z; Homo sapiens, HD-MY-Z",> 2 µM
same,IC50,"HH; Homo sapiens, HH",> 2 µM
same,IC50,"HL-60; Homo sapiens, HL-60",> 2 µM
same,IC50,"JAR; Homo sapiens, JAR",> 2 µM
same,IC50,"K562; Homo sapiens, K562",> 2 µM
same,IC50,"KM12; Homo sapiens, KM12",> 2 µM
same,IC50,"KMOE-2; Homo sapiens, KMOE-2",> 2 µM
same,IC50,"KU812 cell line; Homo sapiens, KU812",0.00248 µM
same,IC50,"KURAMOCHI; Homo sapiens, KURAMOCHI",> 2 µM
same,IC50,"LAMA-84; Homo sapiens, LAMA-84",0.0049 µM
same,IC50,"LC-2-ad; Homo sapiens, LC-2-ad",> 2 µM
same,IC50,"LS-123; Homo sapiens, LS-123",> 2 µM
same,IC50,"LS-513; Homo sapiens, LS-513",> 2 µM
same,IC50,"MC116; Homo sapiens, MC116",> 2 µM
same,IC50,"MFM-223; Homo sapiens, MFM-223",> 2 µM
same,IC50,"MLMA; Homo sapiens, MLMA",> 2 µM
same,IC50,"MS-1; Homo sapiens, MS-1",> 2 µM
same,IC50,"NB17; Homo sapiens, NB17",> 2 µM
same,IC50,"NCI-H1092; Homo sapiens, NCI-H1092",> 2 µM
same,IC50,"NCI-H69; Homo sapiens, NCI-H69",> 2 µM
same,IC50,"NH-12; Homo sapiens, NH-12",> 2 µM
same,IC50,"OCUB-M; Homo sapiens, OCUB-M",> 2 µM
same,IC50,"ONS-76; Homo sapiens, ONS-76",> 2 µM
same,IC50,"OS-RC-2; Homo sapiens, OS-RC-2",> 2 µM
same,IC50,"P30-OHK; Homo sapiens, P30-OHK",> 2 µM
same,IC50,"QIMR-WIL; Homo sapiens, QIMR-WIL",> 2 µM
same,IC50,"SBC-1; Homo sapiens, SBC-1",> 2 µM
same,IC50,"SK-MEL-2; Homo sapiens, SK-MEL-2",> 2 µM
same,IC50,"SK-UT-1; Homo sapiens, SK-UT-1",> 2 µM
same,IC50,"SNU-C2B; Homo sapiens, SNU-C2B",> 2 µM
same,IC50,"SW982; Homo sapiens, SW982",> 2 µM
same,IC50,"8-MG-BA; Homo sapiens, 8-MG-BA",> 2 µM
same,IC50,"A388; Homo sapiens, A388",> 2 µM
same,IC50,"TGBC1TKB; Homo sapiens, TGBC1TKB",> 2 µM
same,IC50,"U-87 MG; Homo sapiens, U-87 MG",> 2 µM
same,IC50,"CGTH-W-1; Homo sapiens, CGTH-W-1",0.649 µM
same,IC50,"COLO-668; Homo sapiens, COLO-668",> 2 µM
CO[C@H]1C[C@@H]2CC[C@@H](C)[C@@](O)(O2)C(=O)C(=O)N2CCCC[C@H]2C(=O)O[C@H]([C@H](C)C[C@@H]2CC[C@@H](OC(=O)C(C)(CO)CO)[C@H](OC)C2)CC(=O)[C@H](C)/C=C(\C)[C@@H](O)[C@@H](OC)C(=O)[C@H](C)C[C@H](C)/C=C/C=C/C=C/1C [TEMSIROLIMUS],IC50,"COR-L88; Homo sapiens, COR-L88",> 0.2 µM
same,IC50,"CTB-1; Homo sapiens, CTB-1",0.00293 µM
same,IC50,"CW-2; Homo sapiens, CW-2",> 0.2 µM
same,IC50,"DMS-79; Homo sapiens, DMS-79",> 0.2 µM
same,IC50,"DSH1; Homo sapiens, DSH1",> 0.2 µM
same,IC50,"ES3; Homo sapiens, ES3",0.0851 µM
same,IC50,"EW-11; Homo sapiens, EW-11",0.0156 µM
same,IC50,"EW-13; Homo sapiens, EW-13",0.0145 µM
same,IC50,"GAK; Homo sapiens, GAK",> 0.2 µM
same,IC50,"HAL-01; Homo sapiens, HAL-01",> 0.2 µM
same,IC50,"HCC 2998; Homo sapiens, HCC 2998",> 0.2 µM
same,IC50,"HD-MY-Z; Homo sapiens, HD-MY-Z",0.0216 µM
same,IC50,"HH; Homo sapiens, HH",0.000664 µM
same,IC50,"HL-60; Homo sapiens, HL-60",> 0.2 µM
same,IC50,"JAR; Homo sapiens, JAR",> 0.2 µM
same,IC50,"K562; Homo sapiens, K562",> 0.2 µM
same,IC50,"KM12; Homo sapiens, KM12",> 0.2 µM
same,IC50,"KMOE-2; Homo sapiens, KMOE-2",> 0.2 µM
same,IC50,"KU812 cell line; Homo sapiens, KU812",> 0.2 µM
same,IC50,"KURAMOCHI; Homo sapiens, KURAMOCHI",> 0.2 µM
same,IC50,"LAMA-84; Homo sapiens, LAMA-84",0.00403 µM
same,IC50,"LC-2-ad; Homo sapiens, LC-2-ad",> 0.2 µM
same,IC50,"LS-123; Homo sapiens, LS-123",> 0.2 µM
same,IC50,"LS-513; Homo sapiens, LS-513",> 0.2 µM
same,IC50,"MC116; Homo sapiens, MC116",0.0255 µM
same,IC50,"MFM-223; Homo sapiens, MFM-223",> 0.2 µM
same,IC50,"MLMA; Homo sapiens, MLMA",0.00331 µM
same,IC50,"MS-1; Homo sapiens, MS-1",> 0.2 µM
same,IC50,"NB17; Homo sapiens, NB17",> 0.2 µM
same,IC50,"NCI-H1092; Homo sapiens, NCI-H1092",> 0.2 µM
same,IC50,"NCI-H69; Homo sapiens, NCI-H69",> 0.2 µM
same,IC50,"NH-12; Homo sapiens, NH-12",> 0.2 µM
same,IC50,"OCUB-M; Homo sapiens, OCUB-M",> 0.2 µM
same,IC50,"ONS-76; Homo sapiens, ONS-76",0.033 µM
same,IC50,"OS-RC-2; Homo sapiens, OS-RC-2",0.017 µM
same,IC50,"P30-OHK; Homo sapiens, P30-OHK",> 0.2 µM
same,IC50,"QIMR-WIL; Homo sapiens, QIMR-WIL",0.00571 µM
same,IC50,"SBC-1; Homo sapiens, SBC-1",0.000444 µM
same,IC50,"SK-MEL-2; Homo sapiens, SK-MEL-2",> 0.2 µM
same,IC50,"SK-UT-1; Homo sapiens, SK-UT-1",0.0641 µM
same,IC50,"SNU-C2B; Homo sapiens, SNU-C2B",> 0.2 µM
same,IC50,"SW982; Homo sapiens, SW982",> 0.2 µM
same,IC50,"8-MG-BA; Homo sapiens, 8-MG-BA",> 0.2 µM
same,IC50,"A388; Homo sapiens, A388",> 0.2 µM
same,IC50,"TGBC1TKB; Homo sapiens, TGBC1TKB",0.137 µM
same,IC50,"U-87 MG; Homo sapiens, U-87 MG",> 0.2 µM
same,IC50,"CGTH-W-1; Homo sapiens, CGTH-W-1",0.00575 µM
same,IC50,"COLO-668; Homo sapiens, COLO-668",> 0.2 µM
